Columns and labels:
Toronto 2 SARS CoV-1 = experiment: organism not typed; type: cell-based; settings: Vero C1008, 72 h, read-out: SARS-1 EC50 (μM) VeroE6
USA_WA1/2020 SARS CoV-2 = experiment: microbe, parasite or virus in culture; type: cell-based; settings: Severe acute respiratory syndrome coronavirus 2, Vero C1008, 72 h, read-out: SARS-2 EC50 (μM) VeroE6
in vitro = settings: African green monkey

| SMILES | EC50 (Toronto 2 SARS CoV-1) | EC50 (USA_WA1/2020 SARS CoV-2) | CC50 (in vitro) |
| --- | --- | --- | --- |
| O=C1Nc2ccc(C(=O)Nc3cccc(C#Cc4ccccn4)c3)cc2CO1 [Compound 3, Oxo-N-(3-(pyridin-2-ylethynyl)phenyl)-1,4-dihydro-2H-benzo[d][1,3]oxazine-6-carboxamide] | > 30 µM | 11.6 µM | 15.8 µM |
| CCC(=O)Nc1ccc(C(=O)Nc2cccc(C#Cc3ccccn3)c2)cc1 [Compound 6, 4-Propionamido-N-(3-(pyridin-2-ylethynyl)phenyl)benzamide] | 0.92 µM | 1.01 µM | > 30 µM |
| CCCC(=O)Nc1ccc(C(=O)Nc2cccc(C#Cc3ccccn3)c2)cc1 [Compound 7, 4-Butyramido-N-(3-(pyridin-2-ylethynyl)phenyl)benzamide] | 0.16 µM | 0.26 µM | > 30 µM |
| O=C(Nc1cccc(C#Cc2ccccn2)c1)c1ccc(NC(=O)C(F)(F)F)cc1 [Compound 10, N-(3-(Pyridin-2-ylethynyl)phenyl)-4-(2,2,2-trifluoroacetamido)benzamide] | 4.89 µM | 6.52 µM | > 30 µM |
| CCOC(=O)Nc1ccc(C(=O)Nc2cccc(C#Cc3ccccn3)c2)cc1 [Compound 11, Ethyl (4-((3-(pyridin-2-ylethynyl)phenyl)carbamoyl)phenyl)carbamate] | 0.84 µM | 1.07 µM | > 30 µM |
| NC(=O)Nc1ccc(C(=O)Nc2cccc(C#Cc3ccccn3)c2)cc1 [Compound 12, N-(3-(pyridin-2-ylethynyl)phenyl)-4-ureidobenzamide] | > 30 µM | > 30 µM | > 30 µM |
| O=C(Nc1cccc(C#Cc2ccccn2)c1)c1ccc(NC(=O)N2CCOCC2)cc1 [Compound 13, N-(4-((3-(Pyridin-2-ylethynyl)phenyl)carbamoyl)phenyl)morpholine-4-carboxamide] | 7.94 µM | 8.25 µM | > 40 µM |
| O=C(Nc1cccc(C#Cc2ccccn2)c1)c1ccc(N2CCCNC2=O)cc1 [Compound 15, 4-(2-Oxotetrahydropyrimidin-1(2H)-yl)-N-(3-(pyridin-2-ylethynyl)phenyl)benzamide] | 9.71 µM | 7.81 µM | > 30 µM |
| CN1CCN(c2ccc(C(=O)Nc3cccc(C#Cc4ccccn4)c3)cc2)C1=O [Compound 16, 4-(3-Methyl-2-oxoimidazolidin-1-yl)-N-(3-(pyridin-2-ylethynyl)phenyl)benzamide] | 0.75 µM | 1.28 µM | > 30 µM |
| O=C(Nc1cccc(C#Cc2ccccn2)c1)c1ccc(N2CCCOC2=O)cc1 [Compound 18, 4-(2-Oxo-1,3-oxazinan-3-yl)-N-(3-(pyridin-2-ylethynyl)phenyl)benzamide] | > 30 µM | > 30 µM | > 30 µM |
| CC(=O)N(C)c1ccc(C(=O)Nc2cccc(C#Cc3ccccn3)c2)cc1 [Compound 19, 4-(N-methylacetamido)-N-(3-(pyridin-2-ylethynyl)phenyl)benzamide] | 2.19 µM | 3.92 µM | > 30 µM |
| O=C(Nc1cccc(C#Cc2ccccn2)c1)c1ccc(N2CCC2=O)cc1 [Compound 20, 4-(2-oxoazetidin-1-yl)-N-(3-(pyridin-2-ylethynyl)phenyl)benzamide] | 2.12 µM | 11.7 µM | > 30 µM |
| CC1(C)CN(c2ccc(C(=O)Nc3cccc(C#Cc4ccccn4)c3)cc2)C1=O [Compound 21, 4-(3,3-Dimethyl-2-oxoazetidin-1-yl)-N-(3-(pyridin-2-ylethynyl)phenyl)benzamide] | 0.52 µM | 0.32 µM | > 30 µM |
| O=C(Nc1cccc(C#Cc2ccccn2)c1)c1ccc(N2CCCCCC2=O)cc1 [Compound 25, 4-(2-Oxoazepan-1-yl)-N-(3-(pyridin-2-ylethynyl)phenyl)benzamide] | 0.52 µM | 1.09 µM | > 30 µM |
| COc1ccc(C(=O)Nc2ccc(C(=O)Nc3cccc(C#Cc4ccccn4)c3)cc2)cc1 [Compound 27, 4-Methoxy-N-(4-((3-(pyridin-2-ylethynyl)phenyl)carbamoyl)phenyl)benzamide] | > 30 µM | > 30 µM | > 30 µM |
| O=C(Nc1ccc(C(=O)Nc2cccc(C#Cc3ccccn3)c2)cc1)c1ccc(O)cc1 [Compound 28, 4-Hydroxy-N-(4-((3-(pyridin-2-ylethynyl)phenyl)carbamoyl)phenyl)benzamide] | 17.1 µM | > 30 µM | > 30 µM |
| CC(=O)Nc1ccc(C(=O)Nc2cccc(C#Cc3ccccn3)c2)cc1O [Compound 30, 4-Acetamido-3-hydroxy-N-(3-(pyridin-2-ylethynyl)phenyl)benzamide] | 6.18 µM | 4.37 µM | > 30 µM |
| CC(=O)Nc1ccc(C(=O)Nc2cccc(C#Cc3ccccn3)c2)nn1 [Compound 31, 6-Acetamido-N-(3-(pyridin-2-ylethynyl)phenyl)pyridazine-3-carboxamide] | > 30 µM | > 30 µM | > 30 µM |

| SMILES | EC50 (Toronto 2 SARS CoV-1) | EC50 (USA_WA1/2020 SARS CoV-2) | CC50 (in vitro) |
| --- | --- | --- | --- |
| O=C(Nc1cccc(C#Cc2ccccn2)c1)c1ccc(N2CCN(C3CCC3)CC2=O)cc1 [Compound 32, 4-(4-Cyclobutyl-2-oxopiperazin-1-yl)-N-(3-(pyridin-2-ylethynyl)phenyl)benzamide] | 6.08 µM | 5.02 µM | 23.1 µM |
| O=C(Nc1cccc(C#Cc2ccccn2)c1)c1ccc(N2CCN(CC3CCC3)CC2=O)cc1 [Compound 33, 4-(4-(Cyclobutylmethyl)-2-oxopiperazin-1-yl)-N-(3-(pyridin-2-ylethynyl)phenyl)benzamide] | 4.62 µM | > 30 µM | > 30 µM |
| Cc1nc2ccc(C(=O)Nc3cccc(C#Cc4ccccn4)c3)cc2o1 [Compound 34, 2-Methyl-N-(3-(pyridin-2-ylethynyl)phenyl)benzo[d]oxazole-6-carboxamide] | 2.01 µM | 2.11 µM | 26.1 µM |
| O=C(Nc1cccc(C#Cc2ccccn2)c1)c1ccc(N2CC3(CCC3)C2=O)cc1 [Compound 35, 4-(1-Oxo-2-azaspiro[3.3]heptan-2-yl)-N-(3-(pyridin-2-ylethynyl)phenyl)benzamide] | 0.43 µM | 1.64 µM | > 30 µM |
| O=C(Nc1cccc(C#Cc2ccccn2)c1)c1ccc(N2CCCC3(CCC3)C2=O)cc1 [Compound 36, 4-(5-Oxo-6-Azaspiro[3.5]nonan-6-yl)-N-(3-(pyridin-2-ylethynyl)phenyl)benzamide] | 0.35 µM | 0.49 µM | 15.3 µM |
| O=C(Nc1cccc(C#Cc2ccccn2)c1)c1ccc(C(=O)NC2CC2)cc1 [Compound 37, N^1-cyclopropyl-N^4-(3-(pyridin-2-ylethynyl)phenyl)terephthalamide] | 2.12 µM | 4 µM | > 30 µM |
| O=C(Nc1cccc(C#Cc2ccccn2)c1)c1ccc(C(=O)NC2CCC2)cc1 [Compound 38, N^1-cyclobutyl-N^4-(3-(pyridin-2-ylethynyl)phenyl)terephthalamide] | 0.75 µM | 1.64 µM | > 30 µM |
| O=C(Nc1cccc(C#Cc2ccccn2)c1)c1ccc(C(=O)NC2CCCC2)cc1 [Compound 39, N^1-cyclopentyl-N^4-(3-(pyridin-2-ylethynyl)phenyl)terephthalamide] | 0.53 µM | 1 µM | > 40 µM |
| O=C(Nc1cccc(C#Cc2ccccn2)c1)c1ccc(-c2nnco2)cc1 [Compound 41, 4-(1,3,4-Oxadiazol-2-yl)-N-(3-(pyridin-2-ylethynyl)phenyl)benzamide] | 0.93 µM | 1.54 µM | > 30 µM |
| CN(C)c1ccc(C(=O)Nc2cccc(C#Cc3ccccn3)c2)cc1 [Compound 42, 4-(Dimethylamino)-N-(3-(pyridin-2-ylethynyl)phenyl)benzamide] | 1.57 µM | 6.52 µM | > 30 µM |
| N#CC1(c2ccc(C(=O)Nc3cccc(C#Cc4ccccn4)c3)cc2)CC1 [Compound 45, 4-(1-Cyanocyclopropyl)-N-(3-(pyridin-2-ylethynyl)phenyl)benzamide] | 3.12 µM | 3.72 µM | 20.8 µM |
| Cc1cc(C#Cc2ccccn2)nc(NC(=O)c2ccc3c(c2)CCC(=O)N3)c1 [Compound 47, N-(4-Methyl-6-(pyridin-2-ylethynyl)pyridin-2-yl)-2-oxo-1,2,3,4-tetrahydroquinoline-6-carboxamide] | 5.51 µM | 6.29 µM | > 30 µM |
| CC(=O)Nc1ccc(-c2nc3ccc(C#Cc4ccccn4)cc3[nH]2)cc1 [Compound 49, N-(4-(5-(Pyridin-2-ylethynyl)-1H-benzo[d]imidazol-2-yl)phenyl)acetamide] | > 30 µM | > 30 µM | > 30 µM |
| COc1cc(C#Cc2ccccn2)cc(NC(=O)c2ccc3c(c2)CCCC(=O)N3)c1 [Compound 51, N-(3-Methoxy-5-(pyridin-2-ylethynyl)phenyl)-2-oxo-2,3,4,5-tetrahydro-1H-benzo[b]azepine-7-carboxamide] | 0.51 µM | 0.52 µM | 12.2 µM |
| Nc1cc(C#Cc2ccccn2)cc(NC(=O)c2ccc(N3CCCCC3=O)cc2)c1 [Compound 52, N-(3-Amino-5-(pyridin-2-ylethynyl)phenyl)-4-(2-oxopiperidin-1-yl)benzamide] | 26 µM | 26 µM | > 30 µM |
| O=C(Nc1cc(C#Cc2ccccn2)cc(OCC2CC2)c1)c1ccc(N2CCCCC2=O)cc1 [Compound 53, N-(3-(Cyclopropylmethoxy)-5-(pyridin-2-ylethynyl)phenyl)-4-(2-oxopiperidin-1-yl)benzamide] | 0.062 µM | 0.18 µM | > 30 µM |
| CC(=O)Nc1ccc(NC(=O)c2cccc(C#Cc3ccccn3)c2)cc1 [Compound 55, N-(4-acetamidophenyl)-3-(pyridin-2-ylethynyl)benzamide] | 2.82 µM | 4.18 µM | > 30 µM |
| CCN(C(C)=O)c1ccc(NC(=O)c2cccc(C#Cc3ccccn3)c2)cc1 [Compound 56, N-(4-(N-ethylacetamido)phenyl)-3-(pyridin-2-ylethynyl)benzamide] | 1.11 µM | 1.58 µM | > 30 µM |

Source: patent publication US11905306B2 (priority 2021, dated 2024)
